Source: US20150105252A1, “SUBSTITUTED PYRAZOLES AS HERBICIDES” (E I DU PONT DE NEMOURS AND COMPANY, priority 2013, published 2015)

Assays:
[1] = system: rice; assay: Test C flooded paddy test; format: in vivo, Oryza sativa; conditions: Flood
Procedure, shortened: (§1)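 Compound was added to standing water 3 cm above soil, flood maintained, and plants held in a greenhouse before visual scoring against controls at 13 to 15 days.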

[2] = system: ducksalad; assay: Test C flooded paddy test; format: in vivo, Heteranthera limosa; conditions: Flood
Procedure, shortened: as §1

[3] = system: pigweed; assay: Test A preemergence; format: in vivo, Amaranthus retroflexus; conditions: preemergence; for Pigweed plant response rating (0 to 100 scale): visual injury approx. 10 days after treatment
Procedure, shortened: (§2)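 Ratings express plant response from 0 (no effect) to 100 (complete control), judged visually against untreated controls after approximately 10 days in the greenhouse. Preemergence applications were made as directed soil sprays onto seeded loam–sand mix, and postemergence applications onto 2–10 cm plants at one- to two-leaf stage.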

[4] = system: barnyardgrass; assay: Test C flooded paddy test; format: in vivo, Echinochloa crus-galli; conditions: Flood
Procedure, shortened: as §1

[5] = system: morningglory; assay: Test A preemergence; format: in vivo, Ipomoea spp.; conditions: preemergence; for Morningglory plant response rating (0 to 100 scale): visual injury approx. 10 days after treatment
Procedure, shortened: as §2

[6] = system: sedge, umbrella; assay: Test C flooded paddy test; format: in vivo, Cyperus difformis; conditions: Flood
Procedure, shortened: as §1

[7] = system: foxtail, giant; assay: Test C preemergence; format: in vivo, Setaria faberii
Procedure, shortened: (§3)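 Greenhouse pot test: preemergence application onto freshly seeded loam/sand mix, postemergence application onto seedlings (1–4 leaves, 2–18 cm) in peat-vermiculite substrate. Responses scored visually 13 to 15 days later relative to controls, where 0 means no effect and 100 means complete control; a dash indicates no result.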

[8] = system: barnyardgrass; assay: Test C preemergence; format: in vivo, Echinochloa crus-galli
Procedure, shortened: as §3

[9] = system: nutsedge, yellow; assay: Test C preemergence; format: in vivo, Cyperus esculentus
Procedure, shortened: as §3

[10] = system: galium; assay: Test C postemergence; format: in vivo, Galium aparine; conditions: for Plant response rating (scale of 0 to 100 where 0 is no effect and 100 is complete control), Galium: Postemergence, 31 g ai/ha, visually evaluated after 13 to 15 days; for Galium plant response rating / Plant response rating, Galium: postemergence; for Galium plant response rating: 62 g ai/ha, scale 0 to 100
Procedure, shortened: as §3

[11] = 31 g ai/ha, scale 0 to 100 (0 no effect, 100 complete control)
[12] = 62 g ai/ha, scale 0 to 100 (0 no effect, 100 complete control)
[13] = 500 g ai/ha, visual injury after approx. 10 days, 0 to 100 scale (0 no effect, 100 complete control)
[14] = preemergence, 31 g ai/ha, visual rating, scale 0 to 100 (0 no effect, 100 complete control), 13 to 15 days
[15] = preemergence, 62 g ai/ha, scale 0 to 100 (0 no effect, 100 complete control), 13 to 15 days
[16] = preemergence, 125 g ai/ha, 13 to 15 days, scale 0 to 100, 0 = no effect, 100 = complete control
[17] = preemergence, 250 g ai/ha, scale 0 to 100, 0 is no effect, 100 is complete control
[18] = 125 g ai/ha, scale 0 to 100 (0 no effect, 100 complete control)
[19] = Preemergence, 16 g ai/ha, scale 0 to 100
[20] = 125 g ai/ha, visual injury, 0 to 100 scale, approx. 10 days
[21] = 250 g ai/ha, scale 0 to 100 (0 no effect, 100 complete control)
[22] = 125 g ai/ha, scale 0 to 100, 0 no effect, 100 complete control
[23] = preemergence, 125 g ai/ha, scale 0 to 100, 0 is no effect, 100 is complete control
[24] = Preemergence, rate head not shown (block before 16 g ai/ha), scale 0 to 100

SMILES	Plant response rating, Rice [1, 11]	Plant response rating, Rice [1, 12]	Plant response rating, Rice ([1]; 250 g ai/ha, scale 0 to 100)	Plant response rating, Ducksalad [2, 11]	Plant response rating, Ducksalad [2, 12]	Plant response rating, Ducksalad ([2]; 250 g ai/ha, scale 0 to 100)	Pigweed plant response rating (0 to 100 scale) ([3]; 125 g ai/ha)	Pigweed plant response rating [3, 13]	Plant response rating, Barnyardgrass [4, 11]	Plant response rating, Barnyardgrass [4, 12]	Morningglory plant response rating (0 to 100 scale) ([5]; 125 g ai/ha)	Foxtail, Giant plant response rating [7, 14]	Foxtail, Giant plant response rating [7, 15]	Plant response rating, Foxtail, Giant [7, 16]	Barnyardgrass plant response rating [8, 14]	Barnyardgrass plant response rating [8, 15]	Plant response rating, Barnyardgrass [8, 16]	Nutsedge, Yellow plant response rating [9, 14]	Nutsedge, Yellow plant response rating [9, 15]	Plant response rating, Nutsedge, Yellow [9, 16]	also measured
O=C(NC1CC1)c1cc(CCF)n(Cc2ccnc(C(F)(F)F)c2)n1 [Compound 176]	0	0	20	0	70	100	100	100	0	0	80	35	90	100	25	100	100	5	5	75	Plant response rating, Rice ([1]; 125 g ai/ha, scale 0 to 100): 20; Plant response rating, Ducksalad ([2]; 125 g ai/ha, scale 0 to 100): 95; Plant response rating, Barnyardgrass ([4]; 125 g ai/ha, scale 0 to 100): 20; Plant response rating, Barnyardgrass ([4]; 250 g ai/ha, scale 0 to 100): 10; Morningglory plant response rating [5, 13]: 100; Plant response rating, Sedge, Umbrella [6, 11]: 0; Plant response rating, Sedge, Umbrella [6, 12]: 40; Plant response rating, Sedge, Umbrella ([6]; 125 g ai/ha, scale 0 to 100): 95; Plant response rating, Sedge, Umbrella ([6]; 250 g ai/ha, scale 0 to 100): 100; Foxtail, Giant plant response rating [7, 17]: 100; Barnyardgrass plant response rating [8, 17]: 100; Nutsedge, Yellow plant response rating [9, 17]: 85
CCNC(=O)c1cc(CCF)n(Cc2ccnc(C(F)(F)F)c2)n1 [Compound 178]	0	0	20	0	30	90	100	100	0	0	80	65	90	100	10	60	100	5	15	35	Plant response rating, Rice [1, 18]: 0; Plant response rating, Ducksalad [2, 18]: 60; Plant response rating, Barnyardgrass [4, 18]: 0; Plant response rating, Barnyardgrass ([4]; 250 g ai/ha, scale 0 to 100): 20; Morningglory plant response rating [5, 13]: 100; Plant response rating, Sedge, Umbrella [6, 11]: 0; Plant response rating, Sedge, Umbrella [6, 12]: 0; Plant response rating, Sedge, Umbrella [6, 18]: 40; Plant response rating, Sedge, Umbrella ([6]; 250 g ai/ha, scale 0 to 100): 80; Plant response rating, Foxtail, Giant [7, 19]: 5; Plant response rating, Barnyardgrass [8, 19]: 0; Plant response rating, Nutsedge, Yellow [9, 19]: 0
CCCc1cc(C(=O)NOC(C)C)nn1Cc1cc(C(F)(F)F)nn1C [Compound 203]	0	0	0	0	0	80	100		0	0	10	60	98	100	35	98	100	5	35	85	Plant response rating, Rice [1, 18]: 0; Plant response rating, Ducksalad [2, 18]: 20; Plant response rating, Barnyardgrass [4, 18]: 0; Plant response rating, Barnyardgrass ([4]; 250 g ai/ha, scale 0 to 100): 0; Plant response rating, Sedge, Umbrella [6, 11]: 40; Plant response rating, Sedge, Umbrella [6, 12]: 40; Plant response rating, Sedge, Umbrella [6, 18]: 70; Plant response rating, Sedge, Umbrella ([6]; 250 g ai/ha, scale 0 to 100): 85; Foxtail, Giant plant response rating [7, 17]: 100; Barnyardgrass plant response rating [8, 17]: 100; Nutsedge, Yellow plant response rating [9, 17]: 90
CCc1cc(C(=O)NCC(F)(F)F)nn1Cc1cc(C(F)(F)F)nn1C [Compound 108, 5-ethyl-1-[[1-methyl-3-(trifluoromethyl)-1H-pyrazole-5-yl]methyl]-N-(2,2,2-trifluoroethyl)-1H-pyrazole-3-carboxamide]								100				100	100			100		5	40		Pigweed plant response rating [3, 20]: 100; Plant response rating (scale of 0 to 100 where 0 is no effect and 100 is complete control), Galium [10]: 60; Galium plant response rating [10]: 60; Plant response rating, Galium [10, 21]: 90; Plant response rating, Galium [10, 22]: 80; Morningglory plant response rating [5, 20]: 100; Morningglory plant response rating [5, 13]: 100; Plant response rating (scale of 0 to 100), Foxtail, Giant ([7]; Preemergence, 250 g ai/ha): 100; Foxtail, Giant plant response rating [7, 23]: 100; Plant response rating (scale of 0 to 100), Barnyardgrass ([8]; Preemergence, 250 g ai/ha): 100; Barnyardgrass plant response rating ([8]; preemergence, 31 g ai/ha, scale 0 to 100 (0 no effect, 100 complete control), 13 to 15 days): 50; Barnyardgrass plant response rating [8, 23]: 100; Plant response rating (scale of 0 to 100), Nutsedge, Yellow ([9]; Preemergence, 250 g ai/ha): 85
CCc1cc(C(=O)NC2CC2)nn1Cc1ccnc(Br)c1 [Compound 220]							100				20		75	100	0	15	35		0	5	Plant response rating (scale of 0 to 100 where 0 is no effect and 100 is complete control), Galium [10]: 50; Galium plant response rating [10]: 40; Plant response rating, Galium [10, 21]: 80; Plant response rating, Galium [10, 22]: 60; Plant response rating, Foxtail, Giant [7, 24]: 10; Foxtail, Giant plant response rating [7, 17]: 100; Barnyardgrass plant response rating [8, 17]: 95; Plant response rating, Nutsedge, Yellow [9, 24]: 0; Nutsedge, Yellow plant response rating [9, 17]: 5
